Test results reported in patent US20160263169A1, “COMPOSITION COMPRISING AN EXTRACT OF COMBINED HERB CONSISTING OF HEAT PROCESSED GINSENG, HOUTTUYNIAE HERBA, PERILLA LEAF AND TEA LEAF OR THE PROCESSED EXTRACT THEREOF AS AN ACTIVE INGREDIENT SHOWING HAIR-STIMULATING ACTIVITY AND PREVENTING ACTIVITY FROM HAIR LOSS, AND THE USE THEREOF” (GINSENG SCIENCE INC., priority 2015, published 2016).

Test system: C57BL/6 mouse
Assay: Promoting effect on hair growth (hair-regrown area/shaved area) in shaved C57BL/6 mouse
Assay type: in vivo
Conditions: 2.5 mg spread on the back of mouse once a day
Method: 6 weeks-old mouse (C57BL/6, 18-20 g, at the beginning of catagen, Orient Bio Inc. Seoul, Korea) was accustomed to the breeding environment for 1 week and anesthetized intramuscularly with an anesthetizer (2.5 mg/mouse, Ketamine, rompun, Bayer Korea Inc.). The back-hair of anesthetized mouse was removed by a grainer and the mice were divided into four groups consisting of 10 mice, respectively, i.e., (1) negative control group: treatment group with only solvent, (2) positive control group: treatment group with Minoxidil (0.5%, w/w), (3) comparative test group: treatment group with the extract prepared in Comparative Example 1 dissolved in adjuvant in a dose dependent manner, (4) test sample group: treatment group with the extract prepared in Examples dissolved in adjuvant in a dose dependent manner. 2.5 mg of the test samples was spread on the back of mouse once a day for 20 days.
The ratio of hair-regrown area/shaved area was quantitatively analyzed by image analyzer (Image-Pro, USA) after shooting the hair-grown area with digital camera (Canon, Japan) and the test result was scored to 5 scores, i.e., score 0: ineffective; score 1: merely effective; score 2: favorably effective; score 3; potently effective; score 4; most potently effective as shown in Table 2.

**Q.** Nc1cc(N2CCCCC2)nc(N)[n+]1[O-] [Positive control, Minoxidil] was tested. Which Criteria (5th day) did it give?
**A.** Its Criteria is “IE (Ineffective (IE))”.

**Q.** And the Hair growth ratio (5th day)?
**A.** The Hair growth ratio was 14%.

**Q.** What about the Score (5th day) of the same compound?
**A.** Its Score is 0 (0-20%).

**Q.** What about the Criteria (10th day) of the same compound?
**A.** The Criteria was “FE (favorably effective (FE))”.

**Q.** What about the Hair growth ratio (10th day) of the same compound?
**A.** Its Hair growth ratio is 42%.

**Q.** And the Score (10th day)?
**A.** Its Score is 2 (40-60%).

**Q.** What about the Criteria (15th day) of the same compound?
**A.** Its Criteria is “PE (potently effective (PE))”.

**Q.** What about the Hair growth ratio (15th day) of the same compound?
**A.** The Hair growth ratio was 62%.

**Q.** And the Score (15th day)?
**A.** The Score was 3 (60-70%).

**Q.** And the Criteria (20th day)?
**A.** The Criteria was “PE (potently effective (PE))”.

**Q.** What about the Hair growth ratio (20th day) of the same compound?
**A.** Its Hair growth ratio is 68%.

**Q.** And the Score (20th day)?
**A.** The Score was 3 (60-70%).
